The values below come from PMC5826148, “Whole-Cell Screen of Fragment Library Identifies Gut Microbiota Metabolite Indole Propionic Acid as Antitubercular” (Antimicrobial Agents and Chemotherapy, 2018).

In data set [1] the test system is M. tuberculosis H37Rv. The experiment in a line: M. tuberculosis growth inhibition dose-response (MIC50), turbidity readout. Particulars: H37Rv, 10 days, read-out: Antibacterial activity (MIC50) M. tuberculosis. Type of data set: cell-based, Mycobacterium tuberculosis.
For data set [2], the system named is M. tuberculosis H37Rv. The experiment in a line: Bactericidal activity, CFU enumeration on agar after treatment. Type of data set: cell-based, Mycobacterium tuberculosis. Particulars: M. tuberculosis, 1 mM, log CFU/ml reduction from initial inoculum.
In a further data set the test system is M. tuberculosis. Nature of the data set: Growth inhibition in acidic medium (pH 6.2). It counts as cell-based, Mycobacterium tuberculosis. The conditions noted are these: pH 6.2, read-out: Activity (MIC50) in acidic medium (pH 6.2).
In the next data set the test system is M. bovis BCG Pasteur. The experiment in a line: microbe, parasite or virus in culture. Type of data set: cell-based.
For the next data set, the system named is M. smegmatis. Nature of the data set: Spectrum of activity: M. smegmatis growth inhibition. It counts as cell-based. Particulars: 1 day, read-out: Antibacterial activity (MIC50) M. smegmatis.
The next data set concerns M. avium. Nature of the data set: Spectrum of activity: M. avium growth inhibition. It counts as cell-based. Particulars: 4 days, read-out: Antibacterial activity (MIC50) M. avium.
A further data set relates to M. abscessus. The experiment in a line: Spectrum of activity: M. abscessus growth inhibition. It counts as cell-based. The conditions noted are these: 3 days, read-out: Antibacterial activity (MIC50) M. abscessus.
A further data set concerns Staphylococcus aureus. The experiment in a line: Spectrum of activity: S. aureus growth inhibition. It counts as cell-based. The conditions noted are these: LB medium, overnight, read-out: Antibacterial activity (MIC50) S. aureus.
The next data set deals with Escherichia coli. The experiment in a line: Spectrum of activity: E. coli growth inhibition. It counts as cell-based. Particulars: LB medium, overnight, read-out: Antibacterial activity (MIC50) E. coli.
The test system of the next data set is mice. Particulars: 100 mg/kg oral on three consecutive days, monitored 7 days.
Details of data set [3]: method as in PMID 24563545. Particulars: cited from earlier work.
Data set [4] relates to human red blood cells (RBCs). The experiment in a line: Red blood cell lysis assay. The conditions noted are these: hemolysis.
Data set [5] can be described thus: Pharmacokinetic study in uninfected CD-1 mice. The conditions noted are these: for AUC(0-t) / Cmax: Ave +/- SD, n=3.
Data set [6] is described as follows: Endogenous plasma levels of IPA in naive mice.
Data set [7] deals with M. tuberculosis H37Rv. The experiment in a line: Mouse model of acute M. tuberculosis infection. The conditions noted are these: for Lungs CFU log10, mean difference from drug-free control / Spleen CFU log10, mean difference from drug-free control: Day 42, IPA 100 mg/kg, oral gavage 6 days/week, 4 weeks.
Data set [8] in a line: Cytotoxicity assay, THP-1 cells (CellTiter 96 AQueous One). The conditions noted are these: human.
Data set [9] is described as follows: Cytotoxicity assay, HepG2 cells (CellTiter 96 AQueous One). Particulars: human, HepG2 cells.
The subject of the next data set is THP-1 cells. Nature of the data set: Cytotoxicity assay, THP-1 cells (CellTiter 96 AQueous One). The conditions noted are these: read-out: Cytotoxicity THP-1 cells CC50; 24 h.
The test system of the next data set is HepG2 cells. The experiment in a line: Cytotoxicity assay, HepG2 cells (CellTiter 96 AQueous One). The conditions noted are these: read-out: Cytotoxicity HepG2 cells CC50; 24 h.

Values after ≈ are worked out from the molar mass of the structure shown. Like-named read-outs stand apart in the source and are kept apart here.

For the compound `O=C(O)CCc1c[nH]c2ccccc12` [Fragment F1], the MIC50 is 68 µM (≈ 12.9 µg/mL) in the data set with M. tuberculosis H37Rv [1] (Mycobacterium tuberculosis, 240 h); 62 µM (≈ 11.7 µg/mL) in the data set on M. tuberculosis (Mycobacterium tuberculosis); 98 µM (≈ 18.5 µg/mL) in the data set on M. bovis BCG Pasteur (Mycobacterium tuberculosis variant bovis BCG, BCG, read-out: Antibacterial activity (MIC50) M. bovis BCG); 477 µM (≈ 90.3 µg/mL) in the data set on M. smegmatis (Mycolicibacterium smegmatis, 24 h); 119 µM (≈ 22.5 µg/mL) in the data set on M. avium (Mycobacterium avium, 96 h); > 500 µM in the data set with M. abscessus (Mycobacteroides abscessus, 72 h). Further, the MIC50 in the data set with Staphylococcus aureus (Staphylococcus aureus) and in the data set with Escherichia coli (Escherichia coli) was > 500 µM each time. The log reduction at 1000 µM in the data set with M. tuberculosis H37Rv [2] (Mycobacterium tuberculosis, H37RV, read-out: Bactericidal activity (log reduction) at 1 mM) was determined as 1.76. In addition, in the data set on mice, the “Acute toxicity: behavior and gross pathology of major organs” value is on record as “None of the mice showed abnormal behavior”. Besides, the “logarithm of partition coefficient between n-octanol and water” value in data set [3] is reported as 2.15. The “RBCs HC50” value in data set [4] was >1,000 μM. In addition, the “time plasma levels above the MIC50” value in [5] (100 mg/kg oral) was “more than 50 % of the dosing interval”. In data set [5] (CD-1, mouse, plasma, iv, 5 mg/kg), this compound displayed a Vd of 0.25 L/kg. Also, the AUC(0-t) in data set [5] (CD-1, mouse, plasma, iv, 5 mg/kg, AUC[0-8], Intravenous 5 mg/kg) came to 72 ± 3 µg·h/mL; in data set [5] (CD-1, mouse, plasma, po, 100 mg/kg, AUC[0-8], Oral 100 mg/kg in CMC (suspension)), 315 ± 88 µg·h/mL; in data set [5] (CD-1, mouse, plasma, po, 100 mg/kg, AUC[0-8], Oral 100 mg/kg in PEG (solution)) it was 312 ± 59 µg·h/mL; in data set [5] (CD-1, mouse, plasma, po, 100 mg/kg, AUC[0-24], Oral 100 mg/kg in CMC (suspension)), 442 ± 271 µg·h/mL; in data set [5] (CD-1, mouse, plasma, po, 100 mg/kg, AUC[0-24], Oral 100 mg/kg in PEG (solution)), 471 ± 129 µg·h/mL. Further, the Cmax in [5] (CD-1, mouse, plasma, po, 100 mg/kg, Oral 100 mg/kg in CMC (suspension)) was found to be 67 ± 28 µg/mL; in [5] (CD-1, mouse, plasma, po, 100 mg/kg, Oral 100 mg/kg in PEG (solution)), 118 ± 10 µg/mL. The bioavailability was 30.8% in data set [5] (CD-1, mouse, plasma, po, 100 mg/kg, F (oral bioavailability), Oral 100 mg/kg in CMC (suspension)); 32.9% in data set [5] (CD-1, mouse, plasma, po, 100 mg/kg, F (oral bioavailability), Oral 100 mg/kg in PEG (solution)); 30 to 33% in data set [5] (CD-1, mouse, plasma, po, 100 mg/kg, oral bioavailability, 100 mg/kg oral). Also, the “Endogenous plasma level, Average” value is recorded as 589 ng/mL in [6] (time 0.25 h); 514 ng/mL in [6] (time 1 h); 455 ng/mL in [6] (time 3 h); 404 ng/mL in data set [6] (time 5 h); 629 ng/mL in [6] (time 8 h). Besides, in the data set on M. tuberculosis H37Rv [7] (100 mg/kg oral, 6 days/week for 4 weeks), the “reduction of bacterial load in the spleen versus untreated mice” value is given as 7 fold. In addition, the “adverse events or abnormal behavior over the course of drug treatment” value in the data set with M. tuberculosis H37Rv [7] (100 mg/kg, six consecutive days per week for 4 weeks, infected mice) was “None of the animals showed signs of adverse events or abnormal behavior”. Further, the “Lungs CFU log10, mean difference from drug-free control” value in the data set with M. tuberculosis H37Rv [7] (INH 25 mg/kg) is listed as -0.28 log10 CFU. For the same compound, the “Spleen CFU log10, mean difference from drug-free control” value in the data set with M. tuberculosis H37Rv [7] (INH 25 mg/kg) was -0.82 log10 CFU. The CC50 at 24 h in [8] and in data set [9] was > 1000 µM throughout.

For `NC(=S)COc1cccc(Cl)c1` [Fragment F13, 2-(3-Chlorophenoxy) ethanethioamide], the MIC50 with M. tuberculosis H37Rv [1] is 211 µM (≈ 42.6 µg/mL); in the data set with M. tuberculosis it was 75 µM (≈ 15.1 µg/mL); in the data set with M. smegmatis, 409 µM (≈ 82.5 µg/mL); in the data set with M. avium, 387 µM (≈ 78 µg/mL); in the data set with M. abscessus, 289 µM (≈ 58.3 µg/mL); with Staphylococcus aureus it was >500 µM. Besides, the MIC50 in the data set with Escherichia coli was >500 µM. Moreover, in the data set on M. tuberculosis H37Rv [2], the “Bactericidal activity (log reduction) at 1 mM” value is listed as 0.90 log reduction. Further, in the data set with M. bovis BCG Pasteur, the “Antibacterial activity (MIC50) M. bovis BCG” value is >500 µM. For the same compound, the “RBCs HC50” value in [4] came to 904 µM. In addition, the CC50 in the data set with THP-1 cells turned out to be 656 µM; with HepG2 cells, 467 µM.

As for `NNC(=O)c1ccncc1` [INH, isoniazid, reference compound], in the data set on M. tuberculosis H37Rv [7] (INH 25 mg/kg), the “Lungs CFU log10, mean difference from drug-free control” value is reported as -3.82 log10 CFU and the “Spleen CFU log10, mean difference from drug-free control” value is given as -5.49 log10 CFU. Also, in the data set on M. tuberculosis H37Rv [7] (INH 25 mg/kg, 4 weeks of monotherapy), the “effect on bacterial load of spleen” value was “sterilized the spleen”.
